{"source": "paper PMC13652807", "about": "“A co-evolved peptide-GPCR system senses host entry to drive fungal infection” (Nature Communications, 2026)", "key": {"[1]": {"target": "T1, Gpe1N246L+N247L (Mycosarcoma maydis, UniProt A0A0D1E6B3, N246L/N247L)", "T1 construct": "expressed in transfected cells; host or cells: Saccharomyces cerevisiae reporter strain, plasmid pIL0350 (made from pIL0186)", "T1 sequence (A0A0D1E6B3 1-435 N246L/N247L)": "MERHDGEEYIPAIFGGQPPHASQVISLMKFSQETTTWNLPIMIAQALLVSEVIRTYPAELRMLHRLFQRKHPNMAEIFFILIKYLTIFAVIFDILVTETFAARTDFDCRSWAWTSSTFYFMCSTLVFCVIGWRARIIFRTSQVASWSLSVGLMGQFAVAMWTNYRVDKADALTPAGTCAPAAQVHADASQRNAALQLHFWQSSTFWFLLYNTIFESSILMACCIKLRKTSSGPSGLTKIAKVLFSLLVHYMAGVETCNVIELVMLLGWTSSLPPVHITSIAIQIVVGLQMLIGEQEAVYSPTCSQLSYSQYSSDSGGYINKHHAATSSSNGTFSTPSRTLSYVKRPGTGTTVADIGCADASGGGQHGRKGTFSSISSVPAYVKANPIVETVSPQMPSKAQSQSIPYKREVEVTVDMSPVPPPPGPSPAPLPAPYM", "test": "Dose-response in yeast reporter assay, Gpe1 N246L+N247L", "format": "cell-based, Ustilago maydis", "details": "Fig. 4e; receptor variant N246L+N247L", "method": "(§1) To test the functional relevance of this putative TM3–TM6 activation module, we generated Gpe1 variants targeting R133 and the adjacent TM6 residues N246 and N247 (Supplementary Fig. 5). Gpe1 variant activation was analyzed by the yeast reporter system. […] However, reduced activity of individual variants may also reflect effects on receptor stability or intracellular trafficking competence.\n(§2) For the plasmid constructions, standard molecular cloning strategies and techniques were applied. For GPCR expression in S. cerevisiae, the ScSte2 expression vector pRS416[22] was digested with SpeI and XhoI to remove the ScSte2 gene. The pure backbone vector was used for classical restriction-ligation (T4 ligase) to clone the GPCR genes inside using unique restriction sites (SpeI and XhoI) added in the PCR gene amplification. For plasmid amplification, recombinant plasmids were transformed in chemically competent E. coli Top10 cells. […]\n(§3) For dose response curves, 9 different concentrations (15 μM and […] five-fold dilutions starting at 8 μM peptide, sterile water was used as no peptide control) of the specific synthetic peptide were used. Experiments were performed in 96-well microtiter plates using a microplate reader (Tecan), and OD600 and red fluorescence were measured after 20 h. […]"}, "[2]": {"target": "T2, wild-type Gpe1 (Mycosarcoma maydis, UniProt A0A0D1E6B3)", "T2 construct": "expressed in transfected cells; host or cells: Saccharomyces cerevisiae JTy014-derived reporter strain, plasmid pIL0186 (pRS416 backbone)", "T2 sequence (A0A0D1E6B3 1-435)": "T1 sequence (A0A0D1E6B3 1-435 N246L/N247L) with L246N, L247N", "test": "Dose-response of synthetic peptide in yeast reporter assay, wild-type Gpe1", "format": "cell-based, Ustilago maydis", "details": "for pEC50: 9 concentrations up to 15 µM, fluorescence after 20 h, four-parameter fit, Fig. 2b/2d, mean of three independent biological experiments", "method": "Experiments were performed in 96-well microtiter plates using a microplate reader (Tecan), and OD600 and red fluorescence were measured after 20 h. A four-parameter non-linear regression model (curve fit) was used using Prism (GraphPad 5): Agonist concentration vs. response (variable slope). After analysis, EC50, basal activation, maximal activation and the Hill coefficient was extracted as previously described."}, "[3]": {"target": "T3, Gpe1R133A (Mycosarcoma maydis, UniProt A0A0D1E6B3, R133A)", "T3 construct": "expressed in transfected cells; host or cells: Saccharomyces cerevisiae reporter strain, plasmid pIL0373 (made from pIL0186)", "T3 sequence (A0A0D1E6B3 1-435 R133A)": "T1 sequence (A0A0D1E6B3 1-435 N246L/N247L) with R133A, L246N, L247N", "test": "Dose-response in yeast reporter assay, Gpe1 R133A", "format": "cell-based, Ustilago maydis", "details": "Fig. 4e; receptor variant R133A", "method": "as §1, §2, §3"}, "[4]": {"target": "T4, Gpe1N246D+N247G (Mycosarcoma maydis, UniProt A0A0D1E6B3, N246D/N247G)", "T4 construct": "expressed in transfected cells; host or cells: Saccharomyces cerevisiae reporter strain, plasmid pIL0351 (made from pIL0186)", "T4 sequence (A0A0D1E6B3 1-435 N246D/N247G)": "T1 sequence (A0A0D1E6B3 1-435 N246L/N247L) with L246D, L247G", "test": "Dose-response in yeast reporter assay, Gpe1 N246D+N247G", "format": "cell-based, Ustilago maydis", "details": "Fig. 4e; receptor variant N246D+N247G; read-out: apparent EC50", "method": "as §1, §2, §3"}, "[5]": {"target": "UhGpe1 (Ustilago hordei)"}, "[6]": {"target": "G-protein-coupled receptor promoting fungal in planta expansion 1 (Gpe1) (Ustilago maydis)"}, "[7]": {"tested_on": "UmGpe1 (Gpe1, UMAG_01374)", "test": "GPCR activation assay in S. cerevisiae (yEmRFP reporter under FUS1 promoter), added protein/peptides", "format": "cell-based, Ustilago maydis", "quoted_text": "To enable ligand identification, Gpe1 was then expressed in an engineered Saccharomyces cerevisiae strain to test receptor activation through production of a fluorescent reporter[22]. This strain is devoid of both endogenous mating GPCR genes (STE2 and STE3), all pheromone genes (MFA1/2 and MFALPHA1/MFALPHA2), BAR1, SST2 and FAR1[22]. And carries an unmodified version of ScGPA1, which is the homolog of U. maydis Gpa1[23]. The coupling of ScGPA1 with Gpe1, and later MAPK pathway activation, lead to the induction of a red fluorescent protein (yEmRFP) under control of the FUS1 promoter serves as readout.\nThe activation assays for each GPCR were performed as previously described with slight modifications[22]. […] Experiments were performed in 96-well microtiter plates using a microplate reader (Tecan), and OD600 and red fluorescence were measured after 8 h. Experiments were run in triplicate.\nThe mixture of tryptic-digested UmPit2 peptides were subjected to separation with a binary gradient of from 5 % to 95 % acetonitrile with a flowrate of 2 mL/min on an HPLC system (Agilent) for 60 min operated in a C-18 reverse phase column. The injection point was after 2 min and while the separation process was running, 2 mL sample was collected until fraction number 50. […]"}, "[8]": {"tested_on": "S. cerevisiae Ste2", "test": "GPCR activation assay in S. cerevisiae, positive control", "format": "cell-based, Saccharomyces cerevisiae", "details": "10 µM α-factor, full agonist positive control; set to 100 %", "excerpt": "Three extra- and intracellular loops connect the TMs, with the N-terminal 35 residues and the 38 residues of the second extracellular loop (ECL2) forming an extracellular extension (Fig. 1b). ECL2 is also predicted to be connected to TM3 via a disulfide bond formed by Cys178 and Cys108 (Fig. 1b), a hallmark of many rhodopsin-class GPCRs[21]. To enable ligand identification, Gpe1 was then expressed in an engineered Saccharomyces cerevisiae strain to test receptor activation through production of a fluorescent reporter. This strain is devoid of both endogenous mating GPCR genes (STE2 and STE3), all pheromone genes (MFA1/2 and MFALPHA1/MFALPHA2), BAR1, SST2 and FAR1[22]. And carries an unmodified version of ScGPA1, which is the homolog of U. maydis Gpa1[23]. The coupling of ScGPA1 with Gpe1, and later MAPK pathway activation, lead to the induction of a red fluorescent protein (yEmRFP) under control of the FUS1 promoter serves as readout. Western blot analysis confirmed expression of Gpe1 in S. cerevisiae (Supplementary Fig.1b).\nThe activation assays for each GPCR were performed as previously described with slight modifications. […] Experiments were performed in 96-well microtiter plates using a microplate reader (Tecan), and OD600 and red fluorescence were measured after 8 h. Experiments were run in triplicate."}}, "note": "Residue numbers refer to the chain shown, from its start. pEC50: −log10 of the molar value. Where a SMILES comes first, the peptide text is derived from it."}
{"compound": "CC(C)C[C@H](NC(=O)[C@H](CO)NC(=O)CNC(=O)[C@@H](NC(=O)[C@H](Cc1ccccc1)NC(=O)CNC(=O)[C@H](Cc1ccccc1)NC(=O)[C@H](Cc1c[nH]c2ccccc12)NC(=O)[C@@H](N)Cc1c[nH]c2ccccc12)[C@@H](C)O)C(=O)O", "note": "[Pit2.5] (H-WWFGFTGSL-OH)", "values": [{"measurement": "pEC50", "setting": "[1]", "result": "< 4.82"}, {"measurement": "pEC50", "setting": "[2]", "result": 7.10}, {"measurement": "pEC50", "setting": "[3]", "result": "< 4.82"}, {"measurement": "pEC50", "setting": "[4]", "result": 6.40}]}
{"compound": "CC(C)C[C@H](NC(=O)[C@H](CO)NC(=O)[C@H](CC(C)C)NC(=O)[C@@H](NC(=O)[C@H](Cc1ccccc1)NC(=O)CNC(=O)[C@H](Cc1ccccc1)NC(=O)[C@H](Cc1c[nH]c2ccccc12)NC(=O)[C@@H](N)Cc1c[nH]c2ccccc12)[C@@H](C)O)C(=O)O", "note": "[pit2.17] (H-WWFGFTLSL-OH)", "values": [{"measurement": "pEC50", "setting": "[2]", "result": 7.64}]}
{"compound": "AWFGFTGSL [pit2.13]", "values": [{"measurement": "Receptor activation in dose-response (in words)", "setting": "[2]; Fig. 2d", "result": "abolished receptor activation"}]}
{"compound": "Pit2.5 (…) (peptide)", "values": [{"measurement": "activation level (% activity) in the S. cerevisiae biosensor assay", "setting": "[5]", "result": 30, "unit": "%"}, {"measurement": "EC50 of the yEmRFP reporter in S. cerevisiae, dose response with synthetic peptide", "setting": "[6]", "result": 80, "unit": "nM"}]}
{"compound": "Pit2.5-G07L (peptide)", "values": [{"measurement": "EC50 of the yEmRFP reporter in S. cerevisiae, dose response with synthetic peptide; maximum fluorescence reduced", "setting": "[6]", "result": 23, "unit": "nM"}]}
{"compound": "Pit2: purified recombinant U. maydis effector protein Pit2 (UMAG_01375) lacking its signal peptide", "values": [{"measurement": "Gpe1 activation level, fluorescence normalized to the Ste2 activation being 100 %", "setting": "[7]; 100 µM purified full-length Pit2 lacking signal peptide, red fluorescence after 8 h, mean of three independent biological experiments", "result": "~ 25%"}]}
{"compound": "SrPit2 peptide", "values": [{"measurement": "activation level (% activity) in the S. cerevisiae biosensor assay", "setting": "[5]", "result": 45, "unit": "%"}]}
{"compound": "WWFGFTGSLGK", "values": [{"measurement": "Identification as Gpe1 agonist", "setting": "[7]; peptide fractionation of tryptic Pit2 digest and mass spectrometry", "result": "Gpe1 agonist"}]}
{"compound": "α-factor", "values": [{"measurement": "Ste2 activation, fluorescence level (normalization reference)", "setting": "[8]", "result": 100, "unit": "%"}]}
